According to patent US9840481B2, “Allosteric modulators of nicotinic acetylcholine receptors” (MERCK SHARP & DOHME CORP., priority 2016, dated 2017):
Where two headings read alike, the source gives them in different places.

Biological target: T1, human α7 nAChR stably expressed in a HEK cell line (with human RIC-3) (Homo sapiens, UniProt P36544)
T1 construct: PrecisION hnAChR α7/RIC-3
Assay: Automated patch-clamp electrophysiology functional assay (Assay A), IonFlux HT, whole-cell population patch
Assay type: cell-based
Summary of the method: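 Whole-cell population patch clamp (IonFlux HT) used HEK cells stably co-expressing human α7 and RIC-3, held at −60 mV at room temperature. Compounds were applied alone (agonism) or with 40 μM acetylcholine (potentiation), three ascending concentrations per recording. Currents were quantified relative to a 40 μM acetylcholine reference response, giving EC50.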

[1] = automated patch-clamp electrophysiology functional assay (Assay A), potency class by EC50, read-out: α7 nAChR Potency
[2] = electrophysiology EC50, HEK cells expressing human α7/RIC-3, 40 μM acetylcholine, holding potential −60 mV, room temperature, read-out: α7 nAChR EC50

T1 sequence (P36544 23-502): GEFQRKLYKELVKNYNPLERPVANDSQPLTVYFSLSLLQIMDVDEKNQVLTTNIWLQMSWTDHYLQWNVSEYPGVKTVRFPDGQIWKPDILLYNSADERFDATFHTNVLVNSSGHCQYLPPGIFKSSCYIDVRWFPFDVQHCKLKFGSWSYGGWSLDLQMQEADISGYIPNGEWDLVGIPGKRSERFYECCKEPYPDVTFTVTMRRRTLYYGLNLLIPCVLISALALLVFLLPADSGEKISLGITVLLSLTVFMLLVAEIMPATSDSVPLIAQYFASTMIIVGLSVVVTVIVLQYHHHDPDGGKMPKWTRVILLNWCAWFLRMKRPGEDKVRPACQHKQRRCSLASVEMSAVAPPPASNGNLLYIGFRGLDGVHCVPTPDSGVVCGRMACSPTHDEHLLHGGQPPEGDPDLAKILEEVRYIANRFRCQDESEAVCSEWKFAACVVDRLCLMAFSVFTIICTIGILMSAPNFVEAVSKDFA

SMILES | EC50 [1] [nM] | EC50 [2] [nM]
CC1(C)[C@@H](c2ccc(S(N)(=O)=O)cc2)[C@@H]1c1noc(-c2ccc(OCCF)nc2)n1 [Example I14] | 500 to 5000 | 
CC1(C)[C@@H](c2ccc(S(N)(=O)=O)cc2)[C@@H]1c1noc(CC2CCCO2)n1 (stereo partly shown) [Example I15] | 500 to 5000 | 
CC(F)(F)c1nc([C@H]2[C@H](c3ccc(S(N)(=O)=O)cc3)C2(C)C)no1 [Example I16] | 100 to 500 | 350
CC1(C)[C@@H](c2ccc(S(N)(=O)=O)cc2)[C@@H]1c1noc(-c2nc(-c3ccc(F)cc3)c[nH]2)n1 [Example I17] | 500 to 5000 | 
CC1(C)[C@@H](c2ccc(S(N)(=O)=O)cc2)[C@@H]1c1noc(-c2cnc(SCC(F)(F)F)o2)n1 [Example I18] | 500 to 5000 | 1300
CC1(C)[C@@H](c2ccc(S(N)(=O)=O)cc2)[C@@H]1c1noc(-c2ccncc2C(F)(F)F)n1 [Example I19] | 100 to 500 | 
CC1(C)[C@@H](c2ccc(S(N)(=O)=O)cc2)[C@@H]1c1noc(-c2cnccc2C(F)(F)F)n1 [Example I20] | 100 to 500 | 
CC1(C)[C@@H](c2ccc(S(N)(=O)=O)cc2)[C@@H]1c1noc(-c2cccnc2C(F)(F)F)n1 [Example I21] | 500 to 5000 | 
CC1(C)[C@@H](c2ccc(S(N)(=O)=O)cc2)[C@@H]1c1noc(-c2cc3sccc3[nH]2)n1 [Example I22] | 5000 to 50000 | 5400
CC1(C)[C@@H](c2ccc(S(N)(=O)=O)cc2)[C@@H]1c1noc(C2CN(C(=O)C3CC3)C2)n1 [Example I23] | 500 to 5000 | 
CC1(C)C(c2ccc(S(N)(=O)=O)cc2)C1c1noc(C2CC3CN(C4CCCC4)C(=O)C3C2)n1 (stereo not shown) [Example I24] | 500 to 5000 | 4400
CC1(C)[C@@H](c2ccc(S(N)(=O)=O)cc2)[C@@H]1c1noc(C2CC2)n1 [Example I25] | 500 to 5000 | 710
CC1(C)[C@@H](c2ccc(S(N)(=O)=O)cc2)[C@@H]1c1noc(C2CCCC2)n1 [Example I26] | ≤ 100 | 64
CC1(C)[C@@H](c2ccc(S(N)(=O)=O)cc2)[C@@H]1c1noc(C2CCCCC23CC3)n1 (stereo partly shown) [Example I27] | 100 to 500 | 
CC1(C)[C@@H](c2ccc(S(N)(=O)=O)cc2)[C@@H]1c1noc(C(O)C(F)(F)F)n1 (stereo partly shown) [Example I28] | 500 to 5000 | 
CC1(C)[C@@H](c2ccc(S(N)(=O)=O)cc2)[C@@H]1c1noc(C2CCC(O)CC2)n1 (stereo partly shown) [Example I29] | 5000 to 50000 | 6800
CC1(C)[C@@H](c2ccc(S(N)(=O)=O)cc2)[C@@H]1c1noc(C2CC(O)C2)n1 (stereo partly shown) [Example I30] | 500 to 5000 | 3800
CC1(C)[C@@H](c2ccc(S(N)(=O)=O)cc2)[C@@H]1c1noc(-c2cccc3c2OCC(=O)N3)n1 [Example I31] | 500 to 5000 | 
CC1(C)[C@@H](c2ccc(S(N)(=O)=O)cc2)[C@@H]1c1noc(-c2ccc3nc(O)sc3c2)n1 [Example I32] | 100 to 500 | 
CC1(C)[C@@H](c2ccc(S(N)(=O)=O)cc2)[C@@H]1c1noc(CCC2CC2)n1 [Example I33] | 500 to 5000 | 
NS(=O)(=O)c1ccc([C@@H]2C[C@H]2c2noc(C3CCCCC3)n2)cc1 [Example I34] | 100 to 500 | 
NS(=O)(=O)c1ccc([C@@H]2C[C@H]2c2noc(C3(C(F)(F)F)CC3)n2)cc1 [Example I35] | 500 to 5000 | 690
NS(=O)(=O)c1ccc([C@@H]2C[C@H]2c2noc(-c3cncc(F)c3)n2)cc1 [Example I36] | 500 to 5000 | 1400
CC1(C)[C@H](c2ccc(S(N)(=O)=O)cc2)[C@H]1c1nc(-c2ccccc2F)co1 [Example J1] | 500 to 5000 | 1200
CC1(C)[C@H](c2ccc(S(N)(=O)=O)cc2)[C@H]1c1nc(-c2ccc(F)cc2F)co1 [Example J2] | 500 to 5000 | 730
CC1(C)[C@H](c2ccc(S(N)(=O)=O)cc2)[C@H]1c1nc(-c2cc(F)ccc2F)co1 [Example J3] | 500 to 5000 | 
CC(C)(C)c1coc([C@@H]2[C@@H](c3ccc(S(N)(=O)=O)cc3)C2(C)C)n1 [Example J4] | 500 to 5000 | 3200
CC1(C)[C@H](c2ccc(S(N)(=O)=O)cc2)[C@H]1c1nc(C2CCCC2)co1 [Example J8] | 500 to 5000 | 
CC1(C)[C@H](c2ccc(S(N)(=O)=O)cc2)[C@H]1c1ncc(C2CCCC2)s1 [Example J9] | 500 to 5000 | 
NS(=O)(=O)c1ccc([C@@H]2[C@@H](c3ncc(C4CCCC4)o3)C2(F)F)cc1 [Example J11] | 500 to 5000 | 730

Now from value to molecule:

EC50 [1] [nM] | EC50 [2] [nM] | SMILES
100 to 500 |  | CC1(C)[C@@H](c2ccc(S(N)(=O)=O)cc2)[C@@H]1c1nc(-c2ccccc2F)co1 [Example K1]
100 to 500 | 380 | CC1(C)[C@@H](c2ccc(S(N)(=O)=O)cc2)[C@@H]1c1nc(-c2ccc(F)cc2F)co1 [Example K3]
500 to 5000 |  | CC(C)(C)c1cnc([C@@H]2C[C@H]2c2ccc(S(N)(=O)=O)cc2)o1 [Example K4]
100 to 500 | 350 | NS(=O)(=O)c1ccc([C@@H]2C[C@H]2c2ncc(C3CC3)o2)cc1 [Example K5]
500 to 5000 |  | CCc1coc([C@@H]2C[C@H]2c2ccc(S(N)(=O)=O)cc2)n1 [Example K6]
500 to 5000 | 620 | CC(C)(C)c1coc([C@H]2[C@H](c3ccc(S(N)(=O)=O)cc3)C2(C)C)n1 [Example K7]
500 to 5000 | 540 | CCc1coc([C@H]2[C@H](c3ccc(S(N)(=O)=O)cc3)C2(C)C)n1 [Example K8]
500 to 5000 | 670 | NS(=O)(=O)c1ccc([C@@H]2C[C@H]2c2nc(-c3ccccc3)cs2)cc1 [Example K9]
5000 to 50000 |  | NS(=O)(=O)c1ccc([C@@H]2C[C@H]2c2nc(-c3ccccc3)c[nH]2)cc1 [Example K12]
100 to 500 | 390 | NS(=O)(=O)c1ccc([C@H]2[C@H](c3ncc(C4CCCC4)o3)C2(F)F)cc1 [Example K13]
500 to 5000 |  | CC1(C)[C@@H](c2ccc(S(N)(=O)=O)cc2)[C@@H]1c1ncc(C2CCCC2)o1 [Example K14]
500 to 5000 |  | CC1(C)[C@@H](c2ccc(S(N)(=O)=O)cc2)[C@@H]1c1ncc(C2CCCC2)s1 [Example K16]
100 to 500 | 130 | CC1(C)[C@@H](c2ccc(S(N)(=O)=O)cc2)[C@@H]1c1nc(C2CCCC2)co1 [Example K17]
100 to 500 |  | NS(=O)(=O)c1ccc([C@@H]2C[C@H]2c2nc(C3CCCC3)co2)cc1 [Example K18]
100 to 500 | 160 | NS(=O)(=O)c1ccc([C@H]2[C@H](c3nc(C4CCCCC4)cs3)C2(F)F)cc1 [Example K19]
100 to 500 |  | NS(=O)(=O)c1ccc([C@@H]2C[C@H]2c2ncc(-c3cccc(F)c3)s2)cc1 [Example K20]
500 to 5000 |  | CC1(C)[C@@H](c2ccc(S(N)(=O)=O)cc2)[C@@H]1c1cnc(-c2ccccc2)o1 [Example L1]
500 to 5000 | 4800 | NS(=O)(=O)c1ccc([C@H]2C[C@@H]2c2cnc(-c3ccccc3)o2)cc1 [Example L2]
500 to 5000 |  | NS(=O)(=O)c1ccc([C@@H]2C[C@H]2c2cnc(-c3ccccc3)o2)cc1 [Example L3]
500 to 5000 | 640 | CC1(C)[C@@H](c2ccc(S(N)(=O)=O)cc2)[C@@H]1c1cc(-c2ccccc2)no1 [Example L4]
500 to 5000 | 770 | CC1(C)[C@H](c2ccc(S(N)(=O)=O)cc2)[C@H]1c1cn(-c2cccc(F)c2)nn1 [Example L5]
